Laboratory results reported in PMC4991483 (Oncotarget, 2016).
Entries after “also recorded” stand apart in the source; their conditions may differ.

Key:
[1] = test system: MDA-MB-231 cell lysates; experiment: Fluorescent labeling of MDA-MB-231 whole cell lysates (SDS-PAGE); assay type: biochemical; conditions: for fluorescent labeling of protein content of cell lysates, O-tosyl vs sulfonamide probe: 100 μM
Experimental: (§1) To investigate the reactivity of 4a in cell lysates, 5 × 10^6 MDA-MB-231 cells were lysed with 200 μL RIPA buffer (Sigma-Aldrich). Lysates were treated with 0-500 μM of compound for 16 h at 4°C and subjected to 4-20% SDS-PAGE. To investigate the in cellulo activity 2 × 10^6 MDA-MB-231 cells were seeded in […] dishes. The following day cells were treated with 0-200 μM of 4a at 37°C, 5% CO2 for 6 h. Cells were lysed using 200 μL RIPA buffer (Sigma-Aldrich) and the lysates were subjected to 4-20% SDS-PAGE. Gels were visualized using the Chemi-Doc MP system. (BIO-RAD). Total protein levels were visualized using Coomassie Brilliant Blue stain. An identical protocol was performed for 4b for direct comparison with 4a.

[2] = target: T1, purified STAT5 (Homo sapiens, UniProt P42229); experiment: Gel-based STAT protein isoform labeling, STAT5; assay type: biochemical; conditions: 100 μM, 16 h, 4°C
T1 construct: His; purchased SignalChem S56-54H
T1 sequence (P42229 1-794): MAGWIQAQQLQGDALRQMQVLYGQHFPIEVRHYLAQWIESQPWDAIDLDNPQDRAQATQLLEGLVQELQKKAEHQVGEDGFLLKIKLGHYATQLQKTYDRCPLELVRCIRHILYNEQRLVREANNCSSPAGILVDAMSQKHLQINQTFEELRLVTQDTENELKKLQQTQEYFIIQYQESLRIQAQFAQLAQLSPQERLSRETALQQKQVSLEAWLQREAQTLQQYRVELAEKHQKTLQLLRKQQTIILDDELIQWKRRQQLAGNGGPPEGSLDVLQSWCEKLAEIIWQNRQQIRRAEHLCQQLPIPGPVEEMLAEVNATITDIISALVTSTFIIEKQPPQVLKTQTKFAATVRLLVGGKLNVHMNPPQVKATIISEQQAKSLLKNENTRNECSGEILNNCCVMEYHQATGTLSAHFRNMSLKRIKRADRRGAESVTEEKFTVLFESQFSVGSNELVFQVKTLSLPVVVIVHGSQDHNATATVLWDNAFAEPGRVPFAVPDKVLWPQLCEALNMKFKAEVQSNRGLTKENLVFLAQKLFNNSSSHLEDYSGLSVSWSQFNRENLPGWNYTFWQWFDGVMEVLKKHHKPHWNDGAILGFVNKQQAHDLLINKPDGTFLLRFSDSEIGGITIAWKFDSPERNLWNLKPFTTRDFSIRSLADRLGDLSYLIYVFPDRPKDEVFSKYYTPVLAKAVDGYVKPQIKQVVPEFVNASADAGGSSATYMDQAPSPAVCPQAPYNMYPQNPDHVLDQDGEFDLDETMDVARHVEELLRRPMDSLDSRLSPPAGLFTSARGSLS
Experimental: (§2) 1.0 μg of purified STAT3, STAT5, and STAT1 (SignalChem) were incubated with 100 uM of 4a for 16 h at 4°C. Samples were subjected to 4-20% SDS-PAGE and imaged using the Chemi-Doc MP (BIO-RAD).

[3] = target: T2, purified STAT3 (Homo sapiens, UniProt P40763); experiment: In vitro kinetic labeling of purified STAT3 protein by fluorescent probe (SDS-PAGE fluorescence); assay type: biochemical; conditions: 100 μM, 0-4 h, 4°C
Experimental: 1 μg of purified STAT3 (SignalChem) protein was incubated with 100 μM 4a at 4°C. At the indicated time points the reaction was quenched with Laemmli loading buffer containing 1.43 M β-mercaptoethanol. Quenched samples were then subjected to 4-20% SDS-PAGE and imaged using the Chemi-Doc MP system (BIO-RAD). Following gel quantification (Image Lab software, BIO-RAD) the data points were plotted and visualized by GraphPad PRISM software.

[4] = test system: pSTAT3 in MDA-MB-231 cells; experiment: Immunoblotting for activated pSTAT3 levels in MDA-MB-231 cells; assay type: cell-based; conditions: increasing concentrations
Experimental: as §1
Lysates were reduced, boiled, subjected to 4-20% SDS-PAGE and transferred to LF-PVDF membranes. Membranes were blocked with 3% BSA and incubated with pSTAT3 (Abcam ab76315), STAT3 (Cell Signaling 4904) or B-Actin (Cell signaling 3700) at 4°C overnight. Membranes were then probed with either anti-mouse IgG Alexa Flour 488 (Cell Signaling 4408) or anti-rabbit IgG Alexa Fluor 647 (Cell Signaling 4414) for 1 h at room temperature. Membranes were visualized using the Chemi-Doc MP System (BIO-RAD).

[5] = target: T2, purified STAT3; experiment: Gel-based STAT protein isoform labeling, STAT3; assay type: biochemical; conditions: 100 μM, 16 h, 4°C
Experimental: as §2

[6] = test system: MDA-MB-231 cells; experiment: Live cell dosing of MDA-MB-231 cells, fluorescent protein labeling (SDS-PAGE); assay type: cell-based; conditions: 0, 50, 100, 200 μM, 6 h, 37°C
Experimental: as §1

[7] = target: T3, purified STAT1 (Homo sapiens, UniProt P42224); experiment: Gel-based STAT protein isoform labeling, STAT1; assay type: biochemical; conditions: 100 μM, 16 h, 4°C
T3 construct: GST; purchased SignalChem S52-54G
T3 sequence (P42224 1-712 isoform P42224-2): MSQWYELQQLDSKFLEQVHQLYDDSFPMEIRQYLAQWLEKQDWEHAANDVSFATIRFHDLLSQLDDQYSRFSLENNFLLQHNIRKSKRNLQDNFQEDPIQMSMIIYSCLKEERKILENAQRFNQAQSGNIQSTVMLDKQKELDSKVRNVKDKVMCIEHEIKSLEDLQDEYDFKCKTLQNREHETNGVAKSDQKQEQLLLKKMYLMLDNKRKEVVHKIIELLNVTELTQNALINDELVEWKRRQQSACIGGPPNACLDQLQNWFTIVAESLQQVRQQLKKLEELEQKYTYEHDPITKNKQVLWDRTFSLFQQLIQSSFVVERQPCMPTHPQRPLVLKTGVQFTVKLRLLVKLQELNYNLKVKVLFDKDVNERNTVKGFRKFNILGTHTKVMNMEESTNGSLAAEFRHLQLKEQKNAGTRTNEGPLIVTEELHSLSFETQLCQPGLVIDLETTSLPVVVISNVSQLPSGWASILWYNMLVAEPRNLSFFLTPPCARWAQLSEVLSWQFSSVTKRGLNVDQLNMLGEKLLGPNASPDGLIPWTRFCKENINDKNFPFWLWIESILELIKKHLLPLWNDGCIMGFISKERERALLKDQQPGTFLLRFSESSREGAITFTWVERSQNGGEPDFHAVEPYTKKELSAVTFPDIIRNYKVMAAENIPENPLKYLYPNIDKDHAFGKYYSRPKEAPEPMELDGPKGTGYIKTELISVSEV
Experimental: as §2

[8] = HPLC-based glutathione (GSH) reactivity / chemical stability assay, 10 mM GSH with TCEP-HCl; conditions: 100 μM compound; for K (kobs), one phase decay / Tau, one phase decay: 10 mM TCEP-HCl, 50 mM HEPES pH 7.4; for reactivity with GSH: 10 h timescale
Experimental: (§3) From 10 mM compound stock solutions in DMSO 10 μL aliquots were transferred to an analytical HPLC vial containing 990 μL of reaction buffer (10.0 mM reduced GSH, 10.0 mM tris(2-carboxyethyl)phosphine hydrochloride (TCEP-HCl) and 50 mM HEPES buffered to pH 7.4) directly preceding 40.0 μL injections continued over a periodic time course. The process was automated by a Hewlett Packard Series 1100 analytical HPLC system fitted with an Agilent ZORBAX 3.5 μm Eclipse XDB-C18 column (23.0–24.0°C) under a linear elution gradient from H2O (double distilled and de-ionized to 18.2 MΩ cm) with 0.10 v/v % TFA to 100% HPLC grade CH3CN over 8.00 min followed by 2.00 min of sustained CH3CN under a 1.200 mL min^−1 flow rate. […] The data, measured in three replicates was fit to a one-phase exponential decay model (GraphPad PRISM) and kinetic parameters extracted from (1).
(1) A(t)=(A0−A∞)e^−kobs^t+A∞

[9] = test system: glutathione (GSH); experiment: physchem; conditions: HEPES buffer with reduced glutathione (GSH) and TCEP-HCl, pH 7.4
Experimental: as §3
(1) A(t)=(A0−A∞)e^−kobs^t+A∞

[10] = test system: STAT3; conditions: cited from earlier work
[11] = target: STAT3:DNA binding; conditions: approximate, reported value; read-out: approximate IC50 for the disruption of STAT3:DNA binding; cited from earlier work
[12] = test system: activated STAT3 dimer; parameters: method as in PMID 21618433; conditions: STAT3 EMSA assay; read-out: inhibition of activated STAT3 dimerization; cited from earlier work
[13] = target: recombinant, full-length STAT3 (Homo sapiens, UniProt P40763); experiment: Incubation of recombinant full-length STAT3 with S3I-201, tryptic digestion and LC-MS/MS; conditions: 500 μM S3I-201 (80-fold molar excess), 1 h, 37°C
recombinant, full-length STAT3, sequence (P40763 whole entry): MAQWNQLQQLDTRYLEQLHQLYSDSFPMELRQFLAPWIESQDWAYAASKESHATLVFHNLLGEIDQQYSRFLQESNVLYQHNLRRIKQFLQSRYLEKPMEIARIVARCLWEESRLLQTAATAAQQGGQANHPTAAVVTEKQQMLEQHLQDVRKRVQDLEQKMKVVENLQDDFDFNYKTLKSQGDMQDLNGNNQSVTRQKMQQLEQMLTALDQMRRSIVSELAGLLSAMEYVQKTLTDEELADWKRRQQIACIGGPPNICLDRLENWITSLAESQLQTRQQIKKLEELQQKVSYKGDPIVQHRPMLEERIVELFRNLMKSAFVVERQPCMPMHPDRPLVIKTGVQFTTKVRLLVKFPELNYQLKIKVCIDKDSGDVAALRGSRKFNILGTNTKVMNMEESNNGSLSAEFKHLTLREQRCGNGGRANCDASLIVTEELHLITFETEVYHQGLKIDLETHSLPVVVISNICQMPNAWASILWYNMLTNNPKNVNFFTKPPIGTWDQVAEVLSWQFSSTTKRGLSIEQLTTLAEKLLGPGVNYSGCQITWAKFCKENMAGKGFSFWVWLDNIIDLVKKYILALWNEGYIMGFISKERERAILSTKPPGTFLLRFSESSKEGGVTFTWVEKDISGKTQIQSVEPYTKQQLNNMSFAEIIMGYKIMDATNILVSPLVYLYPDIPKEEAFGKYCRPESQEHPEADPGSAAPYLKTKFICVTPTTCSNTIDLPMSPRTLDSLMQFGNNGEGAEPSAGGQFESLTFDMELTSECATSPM
Experimental: The incubation was then quenched by the addition of dithiothreitol (DTT) to a final concentration of 0.5 mM and incubation at 55°C for 30 min. Free sulfhydryl groups were alkylated with 2-iodoacetamide (Sigma) at a final concentration of 1.5 mM for 45 min at room temperature. The samples were subjected to trypsin (Promega) digestion (0.5 μg of trypsin per reaction), lyophilized, re-suspended in 0.1% formic acid, and desalted using ZipTip C18 (EMD Millipore) prior to analysis. Samples were analyzed by LC-MS/MS on a nanoLC ultra HPLC system (Eksigent) coupled to a Thermo Scientific Orbitrap-Elite.
The aqueous and organic mobile phases consisted of 0.1% formic acid in water or CH3CN respectively. Organic mobile phase composition was varied over each hour long LC-MS/MS analysis as follows: 2% from 0 to 1 min, 10% to 35% from 1 to 35 min, 80% from 35.5 to 44.5 min, 2% from 45 to 60 min.

T2 sequence (P40763 whole entry): as above

Row | SMILES | K (kobs), one phase decay [8] | Tau, one phase decay [8] | half-life at 100 μM [9] [h] | reactivity with GSH [8] | also measured
1 | Cc1ccc(S(=O)(=O)OCC(=O)N(Cc2cn(CCOCCOCCOCCNS(=O)(=O)c3cccc4c(N(C)C)cccc34)nn2)c2ccc(C(=O)O)c(O)c2)cc1 [4a] |  |  |  |  | fluorescent labeling of protein content of cell lysates ([1]; 0, 100, 250, 500 μM, 16 h, 4°C): pronounced, non-specific, global labeling of the protein content; fluorescent labeling of protein content of cell lysates, O-tosyl vs sulfonamide probe [1]: promiscuously modified; fluorescent labeling of purified STAT5 [2]: non-specific fluorescent labeling of all three STAT isoforms; fluorescent labeling of purified STAT3 over time course [3]: time dependent increase in fluorescent signal; pSTAT3 levels (immunoblot) [4]: dose-dependent decrease in pSTAT3 levels; fluorescent labeling of purified STAT3 [5]: non-specific fluorescent labeling of all three STAT isoforms; fluorescent labeling of intracellular proteins in whole cells [6]: increasing levels of fluorescent intensities following the dose of reporter; fluorescent labeling of intracellular proteins in whole cells ([6]; listed as DB-6-055): non-specifically and globally alkylated intracellular proteins; fluorescent labeling of purified STAT1 [7]: non-specific fluorescent labeling of all three STAT isoforms
2 | Cc1ccc(S(=O)(=O)NCC(=O)N(Cc2cn(CCOCCOCCOCCNS(=O)(=O)c3cccc4c(N(C)C)cccc34)nn2)c2ccc(C(=O)O)c(O)c2)cc1 [4b] |  |  |  |  | fluorescent labeling of protein content of cell lysates, O-tosyl vs sulfonamide probe [1]: no observable fluorescent enhancement
3 | CN(CC(=O)N(Cc1ccc(C2CCCCC2)cc1)c1ccc(C(=O)O)c(O)c1)S(=O)(=O)c1c(F)c(F)c(F)c(F)c1F [BP-1-102] | 0.5322 h⁻¹ | 1.879 |  |  | 
4 | Cc1ccccc1CN(CC(=O)N(Cc1ccc(C2CCCCC2)cc1)c1ccc(C(=O)O)c(O)c1)S(=O)(=O)c1ccc(C(F)(F)F)cc1 [BP-5-087] | 0.1348 h⁻¹ | 7.417 | 5.14 | negligible reactivity with GSH | 
5 | Cc1ccc(S(=O)(=O)NCC(=O)Nc2ccc(C(=O)O)c(O)c2)cc1 [DB-5-112] | 2.725e-05 h⁻¹ | 36701 | 25400 | no reactivity toward GSH | 
6 | C[C@@H]1C=C2C(=O)O[C@@H]3CC[C@H](C1)[C@]23O [Galiellalactone] |  |  |  |  | cysteine residues of STAT3 covalently modified (MS/MS analysis) [10]: covalently modified three cysteine residues (367, 468, and 542)
7 | Cc1ccc(S(=O)(=O)OCC(=O)Nc2ccc(C(=O)O)c(O)c2)cc1 [S3I-201] | 2.735 h⁻¹ | 0.3657 |  |  | IC50 [11]: ~100 µM; IC50 [12]: 86 µM; cysteine residues of STAT3 covalently modified (LC-MS/MS) [13]: covalently modified Cys108, Cys259, Cys367, Cys542, and Cys687; also recorded: five specific sites of modification, cysteine's 108, 259, 367, 542, and 687; also recorded: Cys residues (418, 426, and 712) were not alkylated
8 | Cc1ccc(S(=O)(=O)N(C)CC(=O)N(Cc2ccc(C3CCCCC3)cc2)c2ccc(C(=O)O)c(O)c2)cc1 [SF-1-066] | ~ 16.95 h^−1 | ~ 0.05898 | ~0.0409 | negligible reactivity with GSH | 
9 | CN(CC(=O)N(Cc1ccc(C2CCCCC2)cc1)c1ccc(C(=O)O)cc1)S(=O)(=O)c1c(F)c(F)c(F)c(F)c1F [SH-4-054] | 0.5147 h⁻¹ | 1.943 |  |  | 
10 | O=[N+]([O-])c1ccc2c(c1)S(=O)(=O)C=C2 [Stattic] |  |  |  |  | cysteine residues of STAT3 modified [10]: Cys251, 259, 367, and 426
